In patent publication US8822449B2, “Substituted aminoindanes and analogs thereof, and the pharmaceutical use thereof” (Sanofi, priority 2008, dated 2014):

Biological target: T1, sodium-proton exchanger of subtype 3 (NHE3) (Homo sapiens, UniProt P48764)
T1 construct: expressed in transfected cells
T1 sequence (P48764 26-834): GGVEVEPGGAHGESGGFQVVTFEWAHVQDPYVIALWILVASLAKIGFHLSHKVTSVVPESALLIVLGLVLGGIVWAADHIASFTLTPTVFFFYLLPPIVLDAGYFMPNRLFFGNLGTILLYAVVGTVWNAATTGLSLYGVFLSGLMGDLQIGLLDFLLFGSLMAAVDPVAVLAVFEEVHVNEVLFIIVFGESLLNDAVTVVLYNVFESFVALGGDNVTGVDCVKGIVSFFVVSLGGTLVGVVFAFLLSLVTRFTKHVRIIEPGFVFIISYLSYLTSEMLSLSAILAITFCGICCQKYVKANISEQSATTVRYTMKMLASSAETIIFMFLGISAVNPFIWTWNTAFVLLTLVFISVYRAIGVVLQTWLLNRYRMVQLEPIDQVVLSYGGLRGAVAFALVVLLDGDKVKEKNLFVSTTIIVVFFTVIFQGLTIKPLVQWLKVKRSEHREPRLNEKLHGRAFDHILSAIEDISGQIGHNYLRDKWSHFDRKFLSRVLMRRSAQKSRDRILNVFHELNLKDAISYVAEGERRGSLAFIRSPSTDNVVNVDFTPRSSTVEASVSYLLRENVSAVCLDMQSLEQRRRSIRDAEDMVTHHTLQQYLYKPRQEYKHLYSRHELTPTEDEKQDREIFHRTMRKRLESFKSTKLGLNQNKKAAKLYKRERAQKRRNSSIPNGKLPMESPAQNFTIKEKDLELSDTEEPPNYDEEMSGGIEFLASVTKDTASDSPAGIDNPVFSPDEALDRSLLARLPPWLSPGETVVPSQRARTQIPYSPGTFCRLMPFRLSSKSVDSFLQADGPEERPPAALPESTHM
Test: Recovery of intracellular pH (pHi) after acidification in LAP1 cells stably expressing NHE3 (BCECF fluorescence, FLIPR)
Assay type: cell-based
Details: LAP1 cells stably expressing NHE3; pH recovery after acidification; range 1 is % inhibition at 10 μM; read-out: Activity range (inhibitory effect on NHE3)

| SMILES | inhibition at 10 µM [%] | IC50 [nM] |
| --- | --- | --- |
| NS(=O)(=O)c1ccc(O[C@H]2c3cccc(Cl)c3C[C@@H]2N2CCCC2)cc1 (racemic) [Example 471, 4-(rac-trans-(1,2)-4-chloro-2-pyrrolidin-1-ylindan-1-yloxy)benzenesulfonamide] | 20 to 50 | – |
| NC(=O)c1cccc(O[C@@H]2c3ccccc3C[C@H]2N2CCC(N)C2)c1 (mixture of isomers) [Example 415, 3-[rac-trans-(1,2)-2-(3-aminopyrrolidin-1-yl)indan-1-yloxy]benzamide] | – | 1000 to 10000 |
| CS(=O)(=O)c1ccc(O[C@H]2c3cccc(F)c3C[C@@H]2N2CCCC2)cc1 (racemic) [Example 285, 1-[rac-trans-(1,2)-4-fluoro-1-(4-methanesulfonylphenoxy)indan-2-yl]pyrrolidine] | – | 1000 to 10000 |
| Clc1cc(Cl)c2c(c1)[C@H](Oc1ccc(-n3cncn3)cc1)[C@@H](N1CC3CNCC3C1)C2 (mixture of isomers) [Example 377, 2-[rac-trans-(1,2)-4,6-dichloro-1-(4-[1,2,4]triazol-1-ylphenoxy)indan-2-yl]octahydropyrrolo[3,4-c]pyrrole] | – | < 1000 |
| CN(C)C(=O)Cc1ccc(O[C@H]2c3ccccc3CC[C@@H]2N2CCC[C@H](N)C2)cc1 (racemic) [Example 382, 2-{4-[rac-trans-(1,2)-2-((S)-3-aminopiperidin-1-yl)-1,2,3,4-tetrahydronaphthalen-1-yloxy]phenyl}-N,N-dimethylacetamide] | 20 to 50 | – |
| O=[N+]([O-])c1ccc(O[C@H]2c3ccccc3C[C@@H]2N2CCCC2)c(Cl)c1 (racemic) [Example 251, 1-[1-(2-chloro-4-nitrophenoxy)indan-2-yl]pyrrolidine] | 20 to 50 | – |
| CS(=O)(=O)c1ccc(O[C@H]2c3cc(Cl)cc(Cl)c3C[C@@H]2N2CC[C@H](N)C2)cc1 [Example 199, (S)-1-[trans-(1S,2S)-4,6-dichloro-1-(4-methanesulfonylphenoxy)indan-2-yl]pyrrolidin-3-ylamine] | – | < 1000 |
| FC(F)(F)c1cnccc1O[C@H]1c2ccccc2C[C@@H]1CN1CCCC1 (racemic) [Example 462, 4-(2-pyrrolidin-1-ylmethylindan-1-yloxy)-3-trifluoromethylpyridine] | 20 to 50 | – |
| N[C@@H]1CCCN([C@@H]2Cc3ccccc3[C@H]2Oc2ccc(Cl)nc2)C1 (racemic) [Example 82, (R)-1-[rac-trans-(1,2)-1-(6-chloropyridin-3-yloxy)indan-2-yl]piperidin-3-ylamine] | – | 1000 to 10000 |
| CN1CCC2CN([C@H]3Cc4c(Cl)cc(Cl)cc4[C@@H]3Oc3ccc(S(C)(=O)=O)cc3)CC21 (single isomer, unassigned) [Example 582] | – | 1000 to 10000 |
| COc1cc(Cl)cc(O[C@@H]2c3ccccc3C[C@H]2N2CCC(CN)CC2)c1 (racemic) [Example 612, C-{1-[rac-trans-(1,2)-1-(3-chloro-5-methoxyphenoxy)indan-2-yl]piperidin-4-yl}methylamine] | – | 1000 to 10000 |
| Clc1ccc2cccc(O[C@H]3c4ccccc4CC[C@@H]3N3CCOCC3)c2n1 (racemic) [Example 395, 2-chloro-8-(rac-trans-(1,2)-2-morpholin-4-yl-1,2,3,4-tetrahydronaphthalen-1-yloxy)quinoline] | 20 to 50 | – |
| NC1CCN([C@@H]2Cc3ccccc3[C@H]2Oc2ccc(NC(=O)OCc3ccccc3)cc2)C1 (mixture of isomers) [Example 241, {4-[rac-trans-(1,2)-2-(3-aminopyrrolidin-1-yl)indan-1-yloxy]phenyl}carbamic acid benzyl ester] | – | 1000 to 10000 |
| Cc1ccc(O[C@H]2c3ccccc3CC[C@@H]2N2CCC[C@H](N)C2)cc1Cl (racemic) [Example 161, (S)-1-[rac-trans-(1,2)-1-(3-chloro-4-methylphenoxy)-1,2,3,4-tetrahydronaphthalen-2-yl]piperidin-3-ylamine] | 20 to 50 | – |
| CCc1nnc(C(C)C)n1-c1ccc(O[C@H]2c3cc(Cl)cc(F)c3C[C@@H]2N2CC[C@@H](O)C2)cc1 [Example 722, (R)-1-{trans-(1S,2S)-6-Chloro-1-[4-(3-ethyl-5-isopropyl-[1,2,4]triazol-4-yl)-phenoxy]-4-fluoro-indan-2-yl}-pyrrolidin-3-ol] | – | 1000 to 10000 |
| O=[N+]([O-])c1ccc(O[C@@H]2c3ccccc3C[C@@H]2N2CCOCC2)c(Cl)c1 (racemic) [Example 478, 4-[(1R,2S)-1-(2-chloro-4-nitrophenoxy)indan-2-yl]morpholine] | 20 to 50 | – |
| Fc1ccc(O[C@H]2c3cc(Cl)cc(Cl)c3C[C@@H]2N2CCCC2)c2ncccc12 [Example 593, 8-((1S,2S)-4,6-dichloro-2-pyrrolidin-1-ylindan-1-yloxy)-5-fluoroquinoline] | 20 to 50 | – |
| Cn1ccn(-c2ccc(F)c(O[C@H]3c4cc(Cl)cc(F)c4C[C@@H]3NC3CCCC3)c2)c1=O [Example 756, 1-[3-(trans-(1S,2S)-6-Chloro-2-cyclopentylamino-4-fluoro-indan-1-yloxy)-4-fluoro-phenyl]-3-methyl-1,3-dihydro-imidazol-2-one] | – | 1000 to 10000 |
| CC(=O)Nc1cccc(O[C@H]2c3cccc(F)c3C[C@@H]2N2CCCC2)c1 (racemic) [Example 652, N-[3-(rac-trans-(1,2)-4-fluoro-2-pyrrolidin-1-ylindan-1-yloxy)phenyl]acetamide] | – | 1000 to 10000 |
| Cc1cn(-c2ccc(O[C@H]3c4cc(Cl)cc(Cl)c4C[C@@H]3N3CC[C@@H](O)C3)c(F)c2)c(C)n1 [Example 727, (R)-1-{trans-(1S,2S)-4,6-Dichloro-1-[4-(2,4-dimethyl-imidazol-1-yl)-2-fluoro-phenoxy]-indan-2-yl}-pyrrolidin-3-ol] | – | < 1000 |
| CCN(CC)[C@@H]1Cc2ccccc2[C@H]1Oc1ccc2sc(C)nc2c1 (racemic) [Example 625, Diethyl-[rac-trans-(1,2)-1-(2-methylbenzothiazol-5-yloxy)indan-2-yl]amine] | – | 1000 to 10000 |
| CN(CCO)[C@H]1Cc2c(Cl)cc(Cl)cc2[C@@H]1Oc1ccc(S(C)(=O)=O)cc1 [Example 702, 2-{[trans-(1S,2S)-4,6-Dichloro-1-(4-methanesulfonyl-phenoxy)-indan-2-yl]-methyl-amino}-ethanol] | – | < 1000 |
| N[C@H]1CCCN([C@H]2CCc3ccccc3[C@@H]2Oc2ccc(Cl)nc2)C1 (racemic) [Example 190, (S)-1-[rac-trans-(1,2)-1-(6-chloropyridin-3-yloxy)-1,2,3,4-tetrahydronaphthalen-2-yl]piperidin-3-ylamine] | 20 to 50 | – |
| N#Cc1c(F)cccc1O[C@H]1c2ccccc2CC[C@@H]1N1CCC[C@@H](N)C1 (racemic) [Example 367, 2-[rac-trans-(1,2)-2-((R)-3-aminopiperidin-1-yl)-1,2,3,4-tetrahydronaphthalen-1-yloxy]-6-fluorobenzonitrile] | 20 to 50 | – |
| Cc1noc(C)c1-c1cc(O[C@H]2c3ccccc3C[C@@H]2N2CCCC2)ccc1F [Example 489, 4-[2-fluoro-5-(trans-(1S,2S)-2-pyrrolidin-1-ylindan-1-yloxy)phenyl]-3,5-dimethylisoxazole] | 20 to 50 | – |
| NC1CCN([C@@H]2Cc3ccccc3[C@H]2Oc2ccnc3ccccc23)C1 (mixture of isomers) [Example 275, 1-[rac-trans-(1,2)-1-(quinolin-4-yloxy)indan-2-yl]pyrrolidin-3-ylamine] | – | 1000 to 10000 |
